Experiments:
[1] = biological target: T1, Human cytomegalovirus DNA polymerase (Human cytomegalovirus, UniProt P08546); experiment: CMV polymerase assay (AlphaLISA); type: biochemical; conditions: HCMV polymerase 0.2 nM; 30 min pre-incubation; 60 min at 37° C.; read-out: CMV (IC50)
T1 construct: made in house; host or cells: SF21 insect cells (baculovirus vector)
Procedure: Human cytomegalovirus and varicella zoster virus DNA polymerases were expressed via baculovirus vector in SF21 cells and purified. Heterodimeric nucleic acid substrate used in the herpesvirus polymerase reactions was generated by annealing a 59-mer template to a 17-mer digoxigenin-labeled primer. Polymerase (HCMV final concentration of 0.2 nM; VZV final concentration of 0.4 nM) was combined with an inhibitor compound or DMSO in assay buffer (10 mM HEPES, pH 7.5, 25 mM KCl, 25 mM NaCl, 5 mM MgCl2, 5% glycerol, 0.67 mg/ml bovine serum albumin, and 1 mM tris(2-carboxyethyl)phosphine), and this mixture was pre-incubated for 30 minutes at room temperature in 384-well microtiter plates. The polymerization reaction was initiated by the addition of template/primer substrate (final concentration: 1.6 nM), and dNTPs (final concentration: 24 nM dCTP, 24 nMdGTP, 16 nM dATP, 16 nM dTTP, and 0.8 nM biotin-dUTP). After 60 min incubation at 37° C., reactions were terminated with quench buffer (25 mM HEPES pH 7.5, 100 mM NaCl, 0.25% Tween-20, 12 mM EDTA, and 1 mg/ml bovine serum albumin). Incorporation of biotinylated UTP was detected with 2.5-5 ug/ml anti-DIG AlphaLISA acceptor beads and 5-10 ug/ml streptavidin AlphaLISA donor beads (PerkinElmer). Compound effects were normalized to the window defined by the controls (DMSO only and pre-quenched wells) and were fit using a 4-parameter algorithm to report an IC50.

[2] = tested on: HCMV Strain AD169; experiment: Viral qPCR assay, HCMV; type: cell-based, Human cytomegalovirus; conditions: Human betaherpesvirus 5, AD169, MRC5, 72 h, MRC-5 cells, 0.05-0.1 pfu/cell, growth media or 50% fetal bovine serum, viral genome copies by qPCR, read-out: CMV Cell (EC50)
Procedure: (§1) MRC5 cells, Vero cells, and MeWo cells were obtained from ATCC, and were maintained at 37° C./5% CO2/90% relative humidity in Minimal Essential Medium with 10% fetal bovine serum, […] L-glutamine, 100 units/ml penicillin and 100 ug/ml streptomycin. Assay plates were prepared by dispensing compounds dissolved in DMSO into wells of 384 well collagen-coated plates using an ECHO acoustic dispenser. Each compound was tested in a 10-point, serial 3-fold dilution. Controls included uninfected cells and infected cells treated only with DMSO. Assays were initiated by mixing selected cells, in suspension, with virus, and dispensing 50 μl/well infected cells to pre-plated compounds. Plates were incubated at 37° C./5% CO2/90% relative humidity for ˜72 hrs to permit genomic replication, and infected cells were lysed by the addition of an equal volume of lysis buffer (10 mM Tris-HCl, pH8, 50 mM KCl, 2 mM MgCl2, 0.45% NP-40, 0.45% Tween-20, and 100 μg/ml proteinase K). An aliquot of the lysate was transferred to a 384-well PCR plate and incubated at 56° C. for 1 hour and then at 95° C. for 10 min. Levels of a viral gene and of the cellular control, PPIA (Thermo Fisher Assay ID=Hs04194521_s1), were measured in separate 10 ul qPCR assays using TaqMan® Gene Expression Master Mix (Applied Biosystems), and an 7900HT Fast Real-Time PCR System with 384-Well Block Module. 7-point, serial 10-fold dilutions of a plasmid standard were run on each plate to generate a standard curve, and genome copies numbers were calculated by plotting experimental Ct onto linear regression of the standard curve. Viral genome copy numbers were normalized by cellular control copy number, and compound effects were normalized to the window defined by the controls. Calculated % effects were fit using a 4-parameter algorithm, and EC50 was reported.
(§2) MRC5 cells, Vero cells, and MeWo cells were obtained from ATCC, and were maintained at 37° C./5% CO2/90% relative humidity in Minimal Essential Medium with 10% fetal bovine serum, […] L-glutamine, 100 units/ml penicillin and 100 ug/ml streptomycin. Assay plates were prepared by dispensing compounds dissolved in DMSO into wells of 384 well collagen-coated plates using an ECHO acoustic dispenser. Each compound was tested in a 10-point, serial 3-fold dilution. Controls included uninfected cells and infected cells treated only with DMSO. Assays were initiated by mixing selected cells, in suspension, with virus, and dispensing 50 μl/well infected cells to pre-plated compounds. Plates were incubated at 37° C./5% CO2/90% relative humidity for ˜72 hrs to permit genomic replication, and infected cells were lysed by the addition of an equal volume of lysis buffer (10 mM Tris-HCl, pH 8, 50 mM KCl, 2 mM MgC12, 0.45% NP-40, 0.45% Tween-20, and 100 μg/ml proteinase K). An aliquot of the lysate was transferred to a 384-well PCR plate and incubated at 56° C. for 1 hour and then at 95° C. for 10 min. Levels of a viral gene were measured in 10 ul qPCR assays using TaqMan® Gene Expression Master Mix (Applied Biosystems), and an 7900HT Fast Real-Time PCR System with 384-Well Block Module. 7-point, serial 10-fold dilutions of a plasmid standard were run on each plate to generate a standard curve, and genome copies numbers were calculated by plotting experimental Ct onto linear regression of the standard curve. Compound effects on viral genome copy number were normalized to the window defined by the controls. Calculated % effects were fit using a 4-parameter algorithm, and ECso was reported.
HCMV: Strain AD169 Street was assayed in MRC-5 cells and was used at 0.05-0.1 pfu/cell. The assays were performed in either growth media or in the same media with 50% fetal bovine serum. Primer-probe set was Thermo Fisher Assay ID=AIFATFK.

[3] = tested on: VZV; experiment: Viral qPCR assay, VZV; type: cell-based, varicella zoster virus; conditions: MeWo or MRC5 cells, 0.04-0.1 pfu/cell, growth medium, viral genome copies by qPCR
Procedure: as §1, §2
VZV: Strain Street was maintained as an infected cell stock in MRC-5 cells. It was assayed in MeWo or MRC5 cells and was used at 0.04-0.1 pfu/cell. The assays were performed in growth medium. Primer-probe set was Thermo Fisher Assay ID=AIPAEXQ.

[4] = tested on: HSV-1 Strain F; experiment: Viral qPCR assay, HSV-1; type: cell-based, Herpes Simplex Virus type 1; conditions: Human alphaherpesvirus 1, 72 h, Vero or MRC5 cells, 0.0005-0.004 pfu/cell, growth medium, viral genome copies by qPCR, read-out: HSV1 Cell (EC50)
Procedure: as §1, §2
HSV-1: Strain F […] was assayed in Vero or MRC5 cells and was used at 0.0005-0.004 pfu/cell in growth medium. Primer-probe set was Thermo Fisher Assay ID=AIBJZIB

T1 sequence (P08546 whole entry): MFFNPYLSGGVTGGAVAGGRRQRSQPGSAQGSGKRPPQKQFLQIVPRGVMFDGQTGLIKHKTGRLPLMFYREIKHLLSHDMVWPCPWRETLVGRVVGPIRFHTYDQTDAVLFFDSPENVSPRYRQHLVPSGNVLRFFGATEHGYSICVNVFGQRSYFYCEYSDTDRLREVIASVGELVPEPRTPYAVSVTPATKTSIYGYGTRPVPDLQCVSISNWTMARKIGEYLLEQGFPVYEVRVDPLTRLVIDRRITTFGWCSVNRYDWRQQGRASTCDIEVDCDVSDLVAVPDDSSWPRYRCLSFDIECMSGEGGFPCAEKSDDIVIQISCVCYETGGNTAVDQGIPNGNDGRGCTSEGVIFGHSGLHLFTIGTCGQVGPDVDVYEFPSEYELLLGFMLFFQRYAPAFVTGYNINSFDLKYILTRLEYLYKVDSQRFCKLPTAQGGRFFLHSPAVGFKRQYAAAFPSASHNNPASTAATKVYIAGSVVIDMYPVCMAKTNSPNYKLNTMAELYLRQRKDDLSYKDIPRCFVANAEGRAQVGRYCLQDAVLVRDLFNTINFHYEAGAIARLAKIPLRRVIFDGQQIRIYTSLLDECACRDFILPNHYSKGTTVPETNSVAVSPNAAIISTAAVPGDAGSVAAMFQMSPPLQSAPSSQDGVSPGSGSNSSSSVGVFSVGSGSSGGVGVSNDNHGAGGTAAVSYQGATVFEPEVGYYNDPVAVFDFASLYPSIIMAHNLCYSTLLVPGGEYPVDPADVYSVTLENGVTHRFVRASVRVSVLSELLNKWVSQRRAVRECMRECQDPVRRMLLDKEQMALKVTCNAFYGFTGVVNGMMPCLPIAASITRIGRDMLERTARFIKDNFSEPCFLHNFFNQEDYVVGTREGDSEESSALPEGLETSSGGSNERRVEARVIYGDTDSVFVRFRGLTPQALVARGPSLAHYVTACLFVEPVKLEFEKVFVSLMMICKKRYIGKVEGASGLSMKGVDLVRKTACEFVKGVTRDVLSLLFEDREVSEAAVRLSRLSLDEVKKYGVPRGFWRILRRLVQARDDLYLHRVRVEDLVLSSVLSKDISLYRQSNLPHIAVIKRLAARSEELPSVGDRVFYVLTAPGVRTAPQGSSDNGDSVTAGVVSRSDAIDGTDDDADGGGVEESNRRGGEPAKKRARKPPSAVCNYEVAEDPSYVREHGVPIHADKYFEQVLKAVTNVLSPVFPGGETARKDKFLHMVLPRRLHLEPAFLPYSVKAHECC

Structure (SMILES)	IC50 [1]	EC50 [2]	EC50 ([3]; Human alphaherpesvirus 3, 72 h)	EC50 [4]	EC50 ([3]; ~72 hrs)
COc1nc(-c2cnc3[nH]ccc3c2)c(O[C@H]2CCN3C(=O)OC[C@@H]3C2)cc1C(=O)NCc1ccc(Cl)cc1 [Compound 41]	17 nM	606 nM	418 nM	494 nM	–
COc1nc(-c2ccncc2)c(O[C@H]2CCN3C(=O)OC[C@@H]3C2)cc1C(=O)NCc1ccc(Cl)cc1 [Compound 42]	10.4 nM	194 nM	130 nM	79.8 nM	–
COc1ccc(-c2nc(OC)c(C(=O)NCc3ccc(Cl)cc3)cc2O[C@H]2CCN3C(=O)OC[C@@H]3C2)cn1 [Compound 43]	22.3 nM	422 nM	298 nM	169 nM	–
COc1nc(-c2cncc(CO)c2)c(O[C@H]2CCN3C(=O)OC[C@@H]3C2)cc1C(=O)NCc1ccc(Cl)cc1 [Compound 44]	20 nM	326 nM	585 nM	263 nM	–
COc1nc(-c2cnc(N)nc2)c(O[C@H]2CCN3C(=O)OC[C@@H]3C2)cc1C(=O)NCc1ccc(Cl)cc1 [Compound 45]	2.3 nM	111 nM	141 nM	50 nM	–
COc1nc(-c2ccc(=O)[nH]c2)c(O[C@H]2CCN3C(=O)OC[C@@H]3C2)cc1C(=O)NCc1ccc(Cl)cc1 [Compound 47]	4.87 nM	1300 nM	2320 nM	654 nM	–
COc1nc(-c2cnn(C(F)F)c2)c(O[C@H]2CCN3C(=O)OC[C@@H]3C2)cc1C(=O)NCc1cc(F)c(Cl)c(F)c1 [Compound 57]	6.13 nM	538 nM	364 nM	207 nM	–
COc1nc(-c2cnn(C(F)F)c2)c(O[C@H]2CCN3C(=O)OC[C@@H]3C2)cc1C(=O)NCc1ccc(C#N)cc1F [Compound 59]	3.25 nM	324 nM	160 nM	80.6 nM	–
COc1nc(-c2cnc(C3CC3)s2)c(O[C@H]2CCN3C(=O)OC[C@@H]3C2)cc1C(=O)NCc1ccc(Cl)cc1 [Compound 63]	8.74 nM	164 nM	167 nM	148 nM	–
COc1nc(-c2ncco2)c(O[C@H]2CCN3C(=O)OC[C@@H]3C2)cc1C(=O)N[C@@H](C)c1ccc(Cl)cc1 [Compound 64]	69.3 nM	911 nM	1560 nM	597 nM	–
COc1nc(N2CC3(CC(O)C3)C2)c(O[C@H]2CCN3C(=O)OC[C@@H]3C2)cc1C(=O)NCc1ccc(Cl)cc1 [Compound 66]	5.23 nM	146 nM	648 nM	262 nM	–
COc1nc(N2CCC(C(C)(C)O)C2)c(O[C@H]2CCN3C(=O)OC[C@@H]3C2)cc1C(=O)NCc1ccc(Cl)cc1 (stereo partly drawn) [Compound 67]	22.9 nM	368 nM	–	568 nM	2270 nM

Reference: US20240083910A1, “AMIDO-SUBSTITUTED PYRIDYL COMPOUNDS AND METHODS OF USE THEREOF FOR THE TREATMENT OF HERPESVIRUSES” (Merck Sharp & Dohme LLC, priority 2020, published 2024)
